From US9695155B2, “Herbicidal substituted pyrimidinyloxy benzene compounds” (E. I. DU PONT DE NEMOURS AND COMPANY, priority 2013, dated 2017)

What was measured:
giant foxtail = assay: Test A preemergence; assay type: in vivo, Setaria faberii
Summary of the method: (§1)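 Compounds in non-phytotoxic solvent with surfactant applied as soil spray preemergence, or postemergence to plants 2-10 cm at one- to two-leaf stage, in loam/sand. After approximately 10 days in greenhouse, injury rated visually versus untreated controls, 0 (no effect) to 100 (complete control).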

kochia = assay: Test C postemergence; assay type: in vivo, Kochia scoparia; details: for Plant response rating (0 to 100), Kochia: 0 is no effect, 100 is complete control; for Kochia plant response rating: 31 g ai/ha; for Kochia plant response rating / Plant response rating, Kochia: scale 0 to 100 (0 no effect, 100 complete control)
Summary of the method: (§2)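 Seeds were sown in loam–sand blend and sprayed preemergence, while plants at 1- to 4-leaf stage (2–18 cm) in peat-based medium received postemergence sprays; test chemicals were formulated in a non-phytotoxic solvent with surfactant. After 13–15 days in a greenhouse, injury was rated visually against controls, 0 (no effect) to 100 (complete control).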

wild oat = assay: Test C postemergence; assay type: in vivo, Avena fatua; details: for Plant response rating (0 to 100), Oat, Wild: 0 is no effect, 100 is complete control; for Oat, Wild plant response rating: 31 g ai/ha; for Oat, Wild plant response rating / Plant response rating, Oat, Wild: scale 0 to 100 (0 no effect, 100 complete control)
Summary of the method: as §2

barnyardgrass = assay: Test B flooded paddy test; assay type: in vivo, Echinochloa crus-galli; details: Flood, 250 g ai/ha; 0 to 100 scale where 0 is no effect and 100 is complete control
Summary of the method: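 Plants at 2-leaf stage; pots flooded to 3 cm above soil and compound applied directly into paddy water, depth held throughout. After 13 to 15 days in greenhouse, visual rating versus controls on 0 (no effect) to 100 (complete control) scale.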

wheat, winter = assay: Test C postemergence; assay type: in vivo, Triticum aestivum; details: for Plant response rating (0 to 100), Wheat: 0 is no effect, 100 is complete control; for Wheat plant response rating: 31 g ai/ha; for Wheat plant response rating / Plant response rating, Wheat: scale 0 to 100 (0 no effect, 100 complete control)
Summary of the method: as §2

chickweed = assay: Test C postemergence; assay type: in vivo, Stellaria media; details: for Plant response rating (0 to 100), Chickweed: 0 is no effect, 100 is complete control; for Chickweed plant response rating: 31 g ai/ha; for Chickweed plant response rating / Plant response rating, Chickweed: scale 0 to 100 (0 no effect, 100 complete control)
Summary of the method: as §2

wheat = assay: Test A postemergence; assay type: in vivo, Triticum aestivum; details: for Wheat plant response rating: 125 g ai/ha
Summary of the method: as §1

blackgrass = assay: Test A postemergence; assay type: in vivo, Alopecurus myosuroides
Summary of the method: as §1

ragweed [1] = assay: Test A preemergence; assay type: in vivo, Ambrosia elatior
Summary of the method: as §1

pigweed = assay: Test A preemergence; assay type: in vivo, Amaranthus retroflexus
Summary of the method: as §1

ragweed [2] = assay: Test A postemergence; assay type: in vivo, Ambrosia elatior; details: for Ragweed plant response rating: 125 g ai/ha
Summary of the method: as §1

velvetleaf = assay: Test A postemergence; assay type: in vivo, Abutilon theophrasti
Summary of the method: as §1

morningglory = assay: Test A preemergence; assay type: in vivo, Ipomoea spp.
Summary of the method: as §1

[3] = 31 g ai/ha, 0 to 100 scale where 0 is no effect and 100 is complete control, visual, approximately 10 days
[4] = 125 g ai/ha, 0 to 100 scale where 0 is no effect and 100 is complete control
[5] = postemergence, visual rating, 13 to 15 days
[6] = 31 g ai/ha, 0 to 100 scale, 0 no effect, 100 complete control
[7] = 0 to 100 scale where 0 is no effect and 100 is complete control
[8] = 500 g ai/ha, 0 to 100 scale where 0 is no effect and 100 is complete control
[9] = 125 g ai/ha, postemergence, visual rating
[10] = 1000 g ai/ha, 0 to 100 scale, 0 no effect, 100 complete control, approx. 10 days
[11] = 1000 g ai/ha, 0 to 100 scale, 0 no effect, 100 complete control
[12] = Postemergence, 62 g ai/ha, 13 to 15 days

SMILES	Plant response rating, Foxtail, Giant (giant foxtail; [4])	Plant response rating (0 to 100), Kochia (kochia; 16 g ai/ha, postemergence)	Kochia plant response rating (kochia; [5])	Plant response rating (0 to 100), Oat, Wild (wild oat; 16 g ai/ha, postemergence)	Oat, Wild plant response rating (wild oat; [5])	Plant response rating, Barnyardgrass (barnyardgrass)	Plant response rating (0 to 100), Wheat (wheat, winter; 16 g ai/ha, postemergence)	Wheat plant response rating (wheat, winter; [5])	Plant response rating (0 to 100), Chickweed (chickweed; 16 g ai/ha, postemergence)	Chickweed plant response rating (chickweed; [5])	Wheat plant response rating (wheat; [7])	Plant response rating, Ragweed (ragweed [1]; [4])	Plant response rating, Pigweed (pigweed; [4])	Plant response rating, Kochia (kochia; [9])	Plant response rating, Kochia (kochia; Postemergence, 62 g ai/ha)	Plant response rating, Oat, Wild (wild oat; [9])	Plant response rating, Oat, Wild (wild oat; Postemergence, 62 g ai/ha)	Plant response rating, Wheat (wheat, winter; [9])	Plant response rating, Wheat (wheat, winter; Postemergence, 62 g ai/ha)	Plant response rating, Chickweed (chickweed; [9])	further results
FCc1cccc(Oc2ncc(F)cn2)c1-n1cc(I)cn1 [Compound 152]	100	15	40	0	5	0	0	0	10	30	40	40	90	–	–	–	–	–	–	–	Plant response rating, Foxtail, Giant (giant foxtail; [3]): 10; Plant response rating (0 to 100), Kochia (kochia; 8 g ai/ha, postemergence): 10; Plant response rating (0 to 100), Oat, Wild (wild oat; 8 g ai/ha, postemergence): 0; Plant response rating (0 to 100), Wheat (wheat, winter; 8 g ai/ha, postemergence): 0; Plant response rating (0 to 100), Chickweed (chickweed; 4 g ai/ha, postemergence): 5; Plant response rating (0 to 100), Chickweed (chickweed; 8 g ai/ha, postemergence): 5; Plant response rating, Wheat (wheat; [6]): 20; Plant response rating, Blackgrass (blackgrass; [6]): 50; Blackgrass plant response rating (blackgrass; [4]): 90; Plant response rating, Ragweed (ragweed [1]; [3]): 20; Plant response rating, Pigweed (pigweed; [3]): 90; Plant response rating, Ragweed (ragweed [2]; [6]): 20; Ragweed plant response rating (ragweed [2]; [7]): 20
Clc1cnc(Oc2cccc(Br)c2-n2cc(I)nn2)nc1 [Compound 117]	90	90	–	10	–	0	0	–	50	–	–	20	100	100	100	20	10	20	5	80	Foxtail, Giant plant response rating (giant foxtail; [8]): 100; Plant response rating, Chickweed (chickweed; Postemergence, 62 g ai/ha): 70; Plant response rating, Wheat (wheat; [8]): 70; Plant response rating, Blackgrass (blackgrass; [4]): 40; Plant response rating, Blackgrass (blackgrass; [8]): 80; Ragweed plant response rating (ragweed [1]; [8]): 60; Pigweed plant response rating (pigweed; [8]): 100; Plant response rating, Ragweed (ragweed [2]; [8]): 100
FCc1cn(-c2ccccc2Oc2ncc(Cl)cn2)nn1 [Compound 123]	–	50	–	0	–	35	0	–	5	–	–	–	–	85	70	0	0	5	0	60	Foxtail, Giant plant response rating (giant foxtail; [10]): 100; Plant response rating, Chickweed (chickweed; Postemergence, 62 g ai/ha): 50; Plant response rating, Wheat (wheat; [11]): 70; Plant response rating, Blackgrass (blackgrass; [11]): 90; Ragweed plant response rating (ragweed [1]; [10]): 90; Pigweed plant response rating (pigweed; [10]): 100; Plant response rating, Ragweed (ragweed [2]; [11]): 100
N#Cc1cnn(-c2c(Br)cccc2Oc2ncc(Cl)cn2)c1 [Compound 140]	100	70	–	0	–	20	0	–	30	–	0	70	100	90	85	5	0	10	0	70	Plant response rating, Foxtail, Giant (giant foxtail; [3]): 50; Plant response rating, Chickweed (chickweed; Postemergence, 62 g ai/ha): 45; Plant response rating, Wheat (wheat; [6]): 0; Plant response rating, Blackgrass (blackgrass; [6]): 30; Blackgrass plant response rating (blackgrass; [4]): 70; Plant response rating, Ragweed (ragweed [1]; [3]): 30; Plant response rating, Pigweed (pigweed; [3]): 90; Plant response rating, Ragweed (ragweed [2]; [6]): 60; Ragweed plant response rating (ragweed [2]; [7]): 70
Clc1cnc(Oc2ccccc2-n2cc(Br)nn2)nc1 [Compound 223]	–	70	85	0	0	35	0	0	35	50	–	–	–	90	–	5	–	5	–	60	Plant response rating, Velvetleaf (velvetleaf; [11]): 100; Foxtail, Giant plant response rating (giant foxtail; [10]): 100; Plant response rating, Kochia (kochia; [12]): 80; Plant response rating, Oat, Wild (wild oat; [12]): 0; Plant response rating, Wheat (wheat, winter; [12]): 0; Plant response rating, Chickweed (chickweed; [12]): 50; Plant response rating, Wheat (wheat; [11]): 70; Pigweed plant response rating (pigweed; [10]): 100; Morningglory plant response rating (morningglory; [10]): 100
Clc1cnc(Oc2cccc(Cl)c2-n2cc(Cl)cn2)nc1 [Compound 220]	–	90	90	5	25	0	0	0	65	70	10	–	–	95	–	50	–	0	–	80	Velvetleaf plant response rating (velvetleaf; [4]): 100; Plant response rating, Velvetleaf (velvetleaf; [8]): 100; Foxtail, Giant plant response rating (0 to 100 scale) (giant foxtail; 125 g ai/ha): 100; Foxtail, Giant plant response rating (giant foxtail; [8]): 100; Plant response rating, Kochia (kochia; [12]): 95; Plant response rating, Oat, Wild (wild oat; [12]): 35; Plant response rating, Wheat (wheat, winter; [12]): 0; Plant response rating, Chickweed (chickweed; [12]): 80; Plant response rating, Wheat (wheat; [8]): 60; Pigweed plant response rating (0 to 100 scale) (pigweed; 125 g ai/ha): 100; Pigweed plant response rating (pigweed; [8]): 100; Morningglory plant response rating (0 to 100 scale) (morningglory; 125 g ai/ha): 0; Morningglory plant response rating (morningglory; [8]): 40
